# According to patent US10322131B2, “Hydroxyacid derivatives, a process for their preparation and pharmaceutical compositions containing them” (LES LABORATOIRES SERVIER, priority 2015, dated 2019):
# Key:
# H929 cells = test: In vitro cytotoxicity (MTT) on H929 multiple myeloma tumour line; assay type: cell-based; details: Microculture Tetrazolium Assay
# Method: The cytotoxicity studies were carried out on the H929 multiple myeloma tumour line.
# The cells are distributed onto microplates and exposed to the test compounds for 48 hours.
# The cell viability is then quantified by a colorimetric assay, the Microculture Tetrazolium Assay (Cancer Res., 1987, 47, 939-942).
# Mcl-1 protein = Mcl-1 protein (Homo sapiens, UniProt Q07820); test: Inhibition of Mcl-1 by the fluorescence polarisation technique; assay type: binding; details: fluorescence polarisation test; Fluorescein labelled ligand 1 nM, Mcl-1 protein 5 nM, ~2 hours at r.t.; read-out: IC50 (M) Mcl-1 FP
# How it was run: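 Competitive FP displacement of fluorescein-labelled peptide ligand (1 nM final) from Mcl-1 (5 nM final) in HEPES 10 mM, 150 mM NaCl, 0.05% Tween 20, pH 7.4, 5% DMSO final. Read after ~2 h at r.t.; IC50 from 11-point 4-parameter logistic fit of % mP reduction.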
# [1] = Homo sapiens, NCI-H929, exposed 48 hours
# Sequence of Mcl-1 protein (Q07820 whole entry): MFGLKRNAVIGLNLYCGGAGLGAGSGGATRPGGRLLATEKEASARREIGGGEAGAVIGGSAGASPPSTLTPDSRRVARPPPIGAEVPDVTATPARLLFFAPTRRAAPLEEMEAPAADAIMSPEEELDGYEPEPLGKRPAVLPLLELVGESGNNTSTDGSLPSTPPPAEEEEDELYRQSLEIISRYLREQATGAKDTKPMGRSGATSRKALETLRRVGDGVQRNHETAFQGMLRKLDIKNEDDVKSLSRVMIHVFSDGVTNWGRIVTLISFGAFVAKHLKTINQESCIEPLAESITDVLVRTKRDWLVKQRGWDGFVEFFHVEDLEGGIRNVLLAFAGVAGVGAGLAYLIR
SMILES,IC50 (Mcl-1 protein) [M],IC50 (H929 cells; [1]) [nM],IC50 (H929 cells; exposed 48 hours) [nM]
"Cc1c(-c2c(-c3ccc(F)cc3)sc3ncnc(OC(Cc4ccccc4OCc4ccnc(-c5cccc(COC(=O)NCCN6CCN(C)CC6)c5)n4)C(=O)O)c23)ccc(OCCN2CCN(C)CC2)c1Cl [Example 41, (2R)-2-{[(5Sa)-5-{3-chloro-2-methyl-4-[2-(4-methylpiperazin-1-yl)ethoxy]phenyl}-6-(4-fluorophenyl)thieno[2,3-d]pyrimidin-4-yl]oxy}-3-{2-[(2-{3-[({[2-(4-methylpiperazin-1-yl)ethyl]carbamoyl}oxy)methyl]phenyl}pyrimidin-4-yl)methoxy]phenyl}propanoic acid]",3.45e-09,90.8,
"Cc1c(-c2c(-c3ccc(F)cc3)sc3ncnc(OC(Cc4ccccc4OCc4ccnc(-c5cccc(OCCOCCO)c5)n4)C(=O)O)c23)ccc(OCCN2CCN(C)CC2)c1Cl [Example 39, (2R)-2-{[(5Sa)-5-{3-chloro-2-methyl-4-[2-(4-methylpiperazin-1-yl)ethoxy]phenyl}-6-(4-fluorophenyl)thieno[2,3-d]pyrimidin-4-yl]oxy}-3-{2-[(2-{3-[2-(2-hydroxyethoxy)ethoxy]phenyl}pyrimidin-4-yl)methoxy]phenyl}propanoic acid]",3.05e-09,3.25,
"COCCOCCOc1cccc(-c2nccc(COc3ccccc3CC(Oc3ncnc4sc(-c5ccc(F)cc5)c(-c5ccc(OCCN6CCN(C)CC6)c(Cl)c5C)c34)C(=O)O)n2)c1 [Example 40, (2R)-2-{[(5Sa)-5-{3-chloro-2-methyl-4-[2-(4-methylpiperazin-1-yl)ethoxy]phenyl}-6-(4-fluorophenyl)thieno[2,3-d]pyrimidin-4-yl]oxy}-3-{2-[(2-{3-[2-(2-methoxyethoxy)ethoxy]phenyl}pyrimidin-4-yl)methoxy]phenyl}propanoic acid]",3.75e-09,6.15,
"Cc1c(-c2c(-c3ccc(F)cc3)sc3ncnc(OC(Cc4ccccc4OCc4ccnc(-c5cccc(COC(=O)NCCOCCOCCOCCO)c5)n4)C(=O)O)c23)ccc(OCCN2CCN(C)CC2)c1Cl [Example 36, (2R)-2-{[(5Sa)-5-{3-chloro-2-methyl-4-[2-(4-methylpiperazin-1-yl)ethoxy]phenyl}-6-(4-fluorophenyl)thieno[2,3-d]pyrimidin-4-yl]oxy}-3-[2-({2-[3-(15-hydroxy-3-oxo-2,7,10,13-tetraoxa-4-azapentadec-1-yl)phenyl]pyrimidin-4-yl}methoxy)phenyl]propanoic acid]",4.65e-09,75.9,
"Cc1c(-c2c(-c3ccc(F)cc3)sc3ncnc(OC(Cc4ccccc4OCc4ccnc(-c5ccc(COC6OC(CO)C(O)C(O)C6O)cc5)n4)C(=O)O)c23)ccc(OCCN2CCN(C)CC2)c1Cl [Example 23, (2R)-2-{[(5Sa)-5-{3-chloro-2-methyl-4-[2-(4-methylpiperazin-1-yl)ethoxy]phenyl}-6-(4-flurophenyl)thieno[2,3-d]pyrimidin-4-yl]oxy}-3-{2-[(2-{4-[(α-D-mannopyranosyloxy)methyl]phenyl}pyrimidin-4-yl)methoxy]phenyl}propanoic acid]",2.7e-09,,39.7
"Cc1c(-c2c(-c3ccc(F)cc3)sc3ncnc(OC(Cc4ccccc4OCc4ccnc(-c5cccc(OCCOCCOCCO)c5)n4)C(=O)O)c23)ccc(OCCN2CCN(C)CC2)c1Cl [Example 38, (2R)-2-{[(5Sa)-5-{3-chloro-2-methyl-4-[2-(4-methylpiperazin-1-yl)ethoxy]phenyl}-6-(4-fluorophenyl)thieno[2,3-d]pyrimidin-4-yl]oxy}-3-(2-{[2-(3-{2-[2-(2-hydroxyethoxy)ethoxy]ethoxy}phenyl)pyrimidin-4-yl]methoxy}phenyl)propanoic acid]",2.8e-09,2.76,
"COC1OC(COc2ccc(-c3nccc(COc4ccccc4CC(Oc4ncnc5sc(-c6ccc(F)cc6)c(-c6ccc(OCCN7CCN(C)CC7)c(Cl)c6C)c45)C(=O)O)n3)cc2)C(O)C(O)C1O [Example 18, methyl 6-O-{4-[4-({2-[(2R)-2-carboxy-2-{[(5Sa)-5-{3-chloro-2-methyl-4-[2-(4-methylpiperazin-1-yl)ethoxy]phenyl}-6-(4-flurophenyl)thieno[2,3-d]pyrimidin-4-yl]oxy}ethyl]phenoxy}methyl)pyrimidin-2-yl]phenyl}-α-D-mannopyranoside]",4.1e-09,,13.9
"Cc1c(-c2c(-c3ccc(F)cc3)sc3ncnc(OC(Cc4ccccc4OCc4ccnc(-c5cccc(COC(=O)NCCN(C)C)c5)n4)C(=O)O)c23)ccc(OCCN2CCN(C)CC2)c1Cl [Example 43, (2R)-2-{[(5Sa)-5-{3-chloro-2-methyl-4-[2-(4-methylpiperazin-1-yl)ethoxy]phenyl}-6-(4-fluorophenyl)thieno[2,3-d]pyrimidin-4-yl]oxy}-3-{2-[(2-{3-[({[2-(dimethylamino)ethyl]carbamoyl}oxy)methyl]phenyl}pyrimidin-4-yl)methoxy]phenyl}propanoic acid]",4.55e-09,31.1,

# Second part, led by results:
IC50 (Mcl-1 protein) [M],SMILES,IC50 (H929 cells; [1]) [nM],IC50 (H929 cells; exposed 48 hours) [nM]
3.7e-09,"Cc1c(-c2c(-c3ccc(F)cc3)sc3ncnc(OC(Cc4ccccc4OCc4ccnc(-c5ccccc5OCC5COC(C)(C)O5)n4)C(=O)O)c23)ccc(OCCN2CCN(C)CC2)c1Cl [Example 5, (2R)-2-{[(5Sa)-5-{3-chloro-2-methyl-4-[2-(4-methylpiperazin-1-yl)ethoxyl]phenyl}-6-(4-fluorophenyl)thieno[2,3-d]pyrimidin-4-yl]oxy}-3-{2-[(2-{2-[(2,2-dimethyl-1,3-dioxolan-4-yl)methoxyl]phenyl}pyrimidin-4-yl)methoxy]phenyl}propanoic acid]",1.65,
3.15e-09,"Cc1c(-c2c(-c3ccc(F)cc3)sc3ncnc(OC(Cc4ccccc4OCc4ccnc(-c5ccc(CCO)cc5)n4)C(=O)O)c23)ccc(OCCN2CCN(C)CC2)c1Cl [Example 24, (2R)-2-{[(5Sa)-5-{3-chloro-methyl-4-[2-(4methylpiperazin-1-yl)ethoxy]phenyl}-6-(4-fluorophenyl)thieno[2,3-d]pyrimidin-4-yl]oxy}-3-[2-({2-[4-(2-hydroxyethyl)phenyl]pyrimidin-4-yl}methoxy)phenyl]propanoic acid]",2.55,
7.1e-09,"Cc1c(-c2c(-c3ccc(F)cc3)sc3ncnc(O[C@H](Cc4ccccc4OCc4ccnc(-c5ccc(OCCN(C)C)cc5)n4)C(=O)O)c23)ccc(OCCN2CCN(C)CC2)c1Cl [Example 34, (2R)-2-{[(5Sa)-5-{3-chloro-2-methyl-4-[2-(4-methylpiperazin-1-yl)ethoxy]phenyl}-6-(4-flurophenyl)thieno[2,3-d]pyrimidin-4-yl]oxy}-3-{2-[(2-{4-[2-(dimethylamino)ethoxy]phenyl}pyrimidin-4-yl)methoxy]phenyl}propanoic acid]",,4.76
7.35e-09,"COCc1ccccc1-c1nccc(COc2ccccc2C[C@@H](Oc2ncnc3sc(-c4ccc(F)cc4)c(-c4ccc(OCCN5CCN(C)CC5)c(Cl)c4C)c23)C(=O)O)n1 [Example 8, (2R)-2-{[(5Sa)-5-{3-chloro-2-methyl-4-[2-(4-methylpiperazin-1-yl)ethoxy]phenyl}-6-(4-flurophenyl)thieno[2,3-d]pyrimidin-4-yl]oxy}-3-[2-({2-[2-(methoxymethyl)phenyl]pyrimidin-4-yl}methoxy)phenyl]propanoic acid]",,2.07
8.15e-09,"COCCOCc1ccccc1-c1nccc(COc2ccccc2CC(Oc2ncnc3sc(-c4ccc(F)cc4)c(-c4ccc(OCCN5CCN(C)CC5)c(Cl)c4C)c23)C(=O)O)n1 [Example 9, (2R)-2-{[(5Sa)-5-{3-chloro-2-methyl-4-[2-(4-methylpiperazin-1-yl)ethoxy]phenyl}-6-(4-fluorophenyl)thieno[2,3-d]pyrimidin-4-yl]oxy}-3-{2-[(2-{2-[(2-methoxyethoxy)methyl]phenyl}pyrimidin-4-yl)methoxy]phenyl}propanoic acid]",1.4,
5.1e-09,"COCC(COC)Oc1cccc(-c2nccc(COc3ccccc3CC(Oc3ncnc4sc(-c5ccc(F)cc5)c(-c5ccc(OCCN6CCN(C)CC6)c(Cl)c5C)c34)C(=O)O)n2)c1 [Example 13, (2R)-2-{[(5Sa)-5-{3-chloro-2-methyl-4-[2-(4-methylpiperazin-1-yl)ethoxy]phenyl}-6-(4fluorophenyl)thieno[2,3-d]pyrimidin-4-yl]oxy}-3-{2-[(2-{3-[(1,3-dimethoxypropan-2-yl)oxy]phenyl}pyrimidin-4-yl)methoxy]phenyl}propanoic acid]",3.59,
8.4e-09,"Cc1c(-c2c(-c3ccc(F)cc3)sc3ncnc(OC(Cc4ccccc4OCc4ccnc(-c5cccc(O)c5)n4)C(=O)O)c23)ccc(OCCN2CCN(C)CC2)c1Cl [Example 1, (2R)-2-{[(5Sa)-5-{3-chloro-2-methyl-4-[2-(4-methylpiperazin-1-yl)ethoxy]phenyl}-6-(4-fluorophenyl)thieno[2,3-d]pyrimidin-4-yl]oxy}-3-(2-{[2-(3-hydroxyphenyl)pyrimidin-4-yl]methoxy}phenyl)propanoic acid]",9.31,
1.57e-08,"COCCOCCOc1ccccc1-c1nccc(COc2ccccc2CC(Oc2ncnc3sc(-c4ccc(F)cc4)c(-c4ccc(OCCN5CCN(C)CC5)c(Cl)c4C)c23)C(=O)O)n1 [Example 6, (2R)-2-{[(5Sa)-5-{3-chloro-2-methyl-4-[2-(4-methylpiperazin-1-yl)ethoxy]phenyl}-6-(4-fluoropnhenyl)thieno[2,3-d]pyrimidin-4-yl]oxy}-3-{2-[(2-{2-[2-(2-methoxyethoxy)ethoxy]phenyl}pyrimidin-4-yl)methoxy]phenyl}propanoic acid]",3.25,
4.85e-09,Cc1c(-c2c(-c3ccc(F)cc3)sc3ncnc(O[C@H](Cc4ccccc4OCc4ccnc(-c5ccccc5OC[C@@H](O)[C@@H](O)[C@H](O)[C@H](O)C(=O)O)n4)C(=O)O)c23)ccc(OCCN2CCN(C)CC2)c1Cl [Example 21],,> 150
